Reference: ChEMBL document CHEMBL6083182, “Development of Peptide Paratope Mimics Derived from the Anti-ROR1 Antibody and Long-Acting Peptide-Drug Conjugates for Targeted Cancer Therapy” (J Med Chem, 2024)
The source made the active and inactive calls. No cut-off for these calls is given here. *1 amine or outer side, *2 acyl side, *3 side chain or, on linkers, in order; H or OH if unused. Where a SMILES comes first, the peptide text is derived from it. [ ]: non-standard residue; d: D form. The star is where a group is joined. ξ: configuration not given here. Glutaryl(5-(14-O-Dox)) = COc1cccc2c1C(=O)c1c(O)c3c(c(O)c1C2=O)C[C@@](O)(C(=O)COC(=O)CCCC(=O)*)C[C@@H]3O[C@H]1C[C@H](N)[C@H](O)[C@H](C)O1; X7 = COc1cccc2c1C(=O)c1c(O)c3c(c(O)c1C2=O)C[C@@](O)(C(=O)CO)C[C@@H]3O[C@H]1C[C@H](NC(=O)CCCCCN2C(=O)CC(*)C2=O)[C@H](O)[C@H](C)O1; X5 = O=C(O)CCCCCCCCCCCCCCCCC(=O)NC(CCC(=O)NCCOCCOCC(=O)NCCOCCOCC(=O)NC(CCCCNC(=O)CCN1C(=O)CC(*)C1=O)C(=O)O)C(=O)O; X3 = CC(C)C(NC(=O)CCCCCN1C(=O)CC(*)C1=O)C(=O)NC(CCCNC(N)=O)C(=O)Nc1ccc(OCC2OC(n3ccc(N)nc3=O)C(F)(F)C2O)cc1; X6 = Nc1ccn(C2OC(COC(=O)CCCCCN3C(=O)CC(*)C3=O)C(O)C2(F)F)c(=O)n1; X2 = NC(=O)C[C@H](N[*:1])C(=O)C[C@@H](CC(=O)O)C(=O)[*:2]; X4 = Nc1ccn(C2OC(COC(=O)CCCC(=O)*)C(O)C2(F)F)c(=O)n1; C18 diacid = O=C(O)CCCCCCCCCCCCCCCCC(=O)*; ξγGlu = O=C(O)C(CCC(=O)[*:2])N[*:1]; AEEA = NCCOCCOCC(=O)O

Legend:
[1] = Cytotoxicity against human MCF-10A cells assessed as decrease in cell viability incubated for 24 hrs by CCK-8 assay; assay type: toxicity, cell-based
MCF7 [2] = assay: Cytotoxicity against ROR1-negative human MCF7 cells assessed as decrease in cell viability incubated for 24 hrs by CCK-8 assay; assay type: functional, cell-based; conditions: MCF7, 24 h
SK-HEP1 = assay: Cytotoxicity against human SK-HEP1 cells assessed as decrease in cell viability incubated for 24 hrs by CCK-8 assay; assay type: functional, cell-based; conditions: SK-HEP1, 24 h
MDA-MB-231 = assay: Cytotoxicity against ROR1-positive human MDA-MB-231 cells assessed as decrease in cell viability incubated for 24 hrs by CCK-8 assay; assay type: functional, cell-based; conditions: MDA-MB-231, 24 h
[3] = molecular target: T1, Inactive tyrosine-protein kinase transmembrane receptor ROR1 (Homo sapiens, UniProt Q01973); assay: Binding affinity to N-terminal His/GST-tagged recombinant human ROR1 (453 to 783 residues) extracted from baculovirus infected insect cells assessed as dissociation constant by SPR analysis
T1 sequence (Q01973 whole entry, the tested form may be a part): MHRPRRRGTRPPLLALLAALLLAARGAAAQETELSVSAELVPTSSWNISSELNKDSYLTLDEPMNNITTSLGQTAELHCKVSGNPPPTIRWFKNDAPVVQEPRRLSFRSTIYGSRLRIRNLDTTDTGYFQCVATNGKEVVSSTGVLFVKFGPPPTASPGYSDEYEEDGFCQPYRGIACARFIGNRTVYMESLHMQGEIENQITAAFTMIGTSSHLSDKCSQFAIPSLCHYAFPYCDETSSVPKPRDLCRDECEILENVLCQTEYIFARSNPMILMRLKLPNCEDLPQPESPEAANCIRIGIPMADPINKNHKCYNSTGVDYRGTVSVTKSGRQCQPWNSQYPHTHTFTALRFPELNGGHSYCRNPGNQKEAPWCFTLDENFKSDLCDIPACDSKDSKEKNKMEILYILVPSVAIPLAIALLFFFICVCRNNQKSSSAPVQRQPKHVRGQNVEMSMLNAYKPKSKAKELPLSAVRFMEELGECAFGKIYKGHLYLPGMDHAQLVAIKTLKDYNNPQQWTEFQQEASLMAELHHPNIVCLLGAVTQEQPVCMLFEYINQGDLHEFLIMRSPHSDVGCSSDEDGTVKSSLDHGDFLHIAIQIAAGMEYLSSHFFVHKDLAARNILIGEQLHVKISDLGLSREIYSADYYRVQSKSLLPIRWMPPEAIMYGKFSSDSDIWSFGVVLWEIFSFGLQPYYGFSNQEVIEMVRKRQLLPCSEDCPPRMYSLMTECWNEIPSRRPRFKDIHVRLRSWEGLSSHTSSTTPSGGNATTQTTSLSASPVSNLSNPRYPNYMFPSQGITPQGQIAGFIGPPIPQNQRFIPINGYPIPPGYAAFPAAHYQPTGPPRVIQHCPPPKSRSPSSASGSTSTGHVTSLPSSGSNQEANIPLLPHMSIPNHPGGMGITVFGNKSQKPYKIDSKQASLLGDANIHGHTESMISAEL

Homo sapiens = organism: Homo sapiens; assay: Binding affinity to CD16A (unknown origin) by SPR analysis
MCF7 [4] = assay: Binding affinity to ROR1 negative human MCF7 cells at 10 uM administered as FITC-labeled compound and measured after 30 mins by Hoechst 33342 staining based confocal fluorescence microscopic analysis; assay type: functional, cell-based
[5] = molecular target: T1, Inactive tyrosine-protein kinase transmembrane receptor ROR1; assay: Binding affinity to ROR1 positive human MDA-MB-231 cells at 10 uM administered as FITC-labeled compound and measured after 30 mins by Hoechst 33342 staining based confocal fluorescence microscopic analysis; assay type: cell-based

Molecule	IC50 at 24 h [1]	IC50 (MCF7 [2])	IC50 (SK-HEP1)	IC50 (MDA-MB-231)	Kd [3]	Activity (Homo sapiens)	Activity (MCF7 [4])	Activity [5]
CC[C@H](C)[C@H](NC(=O)[C@H](CC(=O)O)NC(=O)[C@H](CO)NC(=O)CNC(=O)[C@H](CSC1CC(=O)N(CCC(=O)NCCCCC(NC(=O)COCCOCCNC(=O)COCCOCCNC(=O)CCC(NC(=O)CCCCCCCCCCCCCCCCC(=O)O)C(=O)O)C(=O)O)C1=O)NC(=O)CNC(=O)[C@H](CCCCN)NC(=O)CCCC(=O)OCC1OC(n2ccc(N)nc2=O)C(F)(F)C1O)C(=O)N[C@@H](CC(N)=O)C(=O)N[C@@H](CC(=O)O)C(=O)N[C@@H](CCCNC(=N)N)C(=O)N[C@@H](CCC(N)=O)C(=O)N[C@H](C(=O)N1CCC[C@H]1C(=O)NCC(=O)N[C@@H](Cc1ccc(O)cc1)C(=O)N[C@@H](CO)C(=O)N[C@H](C(=O)N[C@@H](Cc1ccc(O)cc1)C(=O)N[C@@H](Cc1c[nH]c2ccccc12)C(=O)NCC(=O)N[C@@H](CC(=O)O)C(=O)N[C@@H](Cc1ccccc1)C(N)=O)[C@@H](C)O)[C@@H](C)CC (some centres not stated) (X4-KGC(X5)GSDINDRQIPGYSTYWGDF-NH2)	27.9 µM	17.8 µM	7.54 µM	0.301 µM	0.0398 µM	–	–	–
CC[C@H](C)[C@H](NC(=O)[C@H](CC(=O)O)NC(=O)[C@H](CO)NC(=O)CNC(=O)[C@H](CSC1CC(=O)N(CCCCCC(=O)NC(C(=O)NC(CCCNC(N)=O)C(=O)Nc2ccc(OCC3OC(n4ccc(N)nc4=O)C(F)(F)C3O)cc2)C(C)C)C1=O)NC(=O)CNC(=O)[C@H](CCCCN)NC(=O)COCCOCCNC(=O)COCCOCCNC(=O)CCC(NC(=O)CCCCCCCCCCCCCCCCC(=O)O)C(=O)O)C(=O)N[C@@H](CC(N)=O)C(=O)C[C@@H](CC(=O)O)C(=O)N[C@@H](CCCNC(=N)N)C(=O)N[C@@H](CCC(N)=O)C(=O)N[C@H](C(=O)N1CCC[C@H]1C(=O)NCC(=O)N[C@@H](Cc1ccc(O)cc1)C(=O)N[C@@H](CO)C(=O)N[C@H](C(=O)N[C@@H](Cc1ccc(O)cc1)C(=O)N[C@@H](Cc1c[nH]c2ccccc12)C(=O)NCC(=O)N[C@@H](CC(=O)O)C(=O)N[C@@H](Cc1ccccc1)C(N)=O)[C@@H](C)O)[C@@H](C)CC (some centres not stated) ({C18 diacid-ξγGlu-AEEA-AEEA}-KGC(X3)GSDI[X2]RQIPGYSTYWGDF-NH2)	14.6 µM	> 50 µM	1.23 µM	6.79 µM	0.0285 µM	–	–	–
CC[C@H](C)[C@H](NC(=O)[C@H](CC(=O)O)NC(=O)[C@H](CO)NC(=O)CNC(=O)[C@H](CSC1CC(=O)N(CCCCCC(=O)OCC2OC(n3ccc(N)nc3=O)C(F)(F)C2O)C1=O)NC(=O)CNC(=O)[C@H](CCCCN)NC(=O)COCCOCCNC(=O)COCCOCCNC(=O)CCC(NC(=O)CCCCCCCCCCCCCCCCC(=O)O)C(=O)O)C(=O)N[C@@H](CC(N)=O)C(=O)N[C@@H](CC(=O)O)C(=O)N[C@@H](CCCNC(=N)N)C(=O)N[C@@H](CCC(N)=O)C(=O)N[C@H](C(=O)N1CCC[C@H]1C(=O)NCC(=O)N[C@@H](Cc1ccc(O)cc1)C(=O)N[C@@H](CO)C(=O)N[C@H](C(=O)N[C@@H](Cc1ccc(O)cc1)C(=O)N[C@@H](Cc1c[nH]c2ccccc12)C(=O)NCC(=O)N[C@@H](CC(=O)O)C(=O)N[C@@H](Cc1ccccc1)C(N)=O)[C@@H](C)O)[C@@H](C)CC (some centres not stated) ({C18 diacid-ξγGlu-AEEA-AEEA}-KGC(X6)GSDINDRQIPGYSTYWGDF-NH2)	30.1 µM	16.6 µM	26 µM	15.8 µM	0.124 µM	–	–	–
CC[C@H](C)[C@H](NC(=O)[C@H](CC(=O)O)NC(=O)[C@H](CO)NC(=O)CNC(=O)[C@H](CSC1CC(=O)N(CCCCCC(=O)N[C@H]2C[C@H](O[C@H]3C[C@](O)(C(=O)CO)Cc4c(O)c5c(c(O)c43)C(=O)c3c(OC)cccc3C5=O)O[C@@H](C)[C@H]2O)C1=O)NC(=O)CNC(=O)[C@H](CCCCN)NC(=O)COCCOCCNC(=O)COCCOCCNC(=O)[C@H](CCC(=O)O)NC(=O)CCCCCCCCCCCCCCCCC(=O)O)C(=O)N[C@@H](CC(N)=O)C(=O)N[C@@H](CC(=O)O)C(=O)N[C@@H](CCCNC(=N)N)C(=O)N[C@@H](CCC(N)=O)C(=O)N[C@H](C(=O)N1CCC[C@H]1C(=O)NCC(=O)N[C@@H](Cc1ccc(O)cc1)C(=O)N[C@@H](CO)C(=O)N[C@H](C(=O)N[C@@H](Cc1ccc(O)cc1)C(=O)N[C@@H](Cc1c[nH]c2ccccc12)C(=O)NCC(=O)N[C@@H](CC(=O)O)C(=O)N[C@@H](Cc1ccccc1)C(N)=O)[C@@H](C)O)[C@@H](C)CC (some centres not stated) ({C18 diacid}-E[AEEA][AEEA]KGC(X7)GSDINDRQIPGYSTYWGDF-NH2)	27.3 µM	35.6 µM	20 µM	14.6 µM	0.152 µM	–	–	–
CC[C@H](C)[C@H](NC(=O)[C@H](CC(=O)O)NC(=O)[C@H](CO)NC(=O)CNC(=O)[C@H](CSC1CC(=O)N(CCC(=O)NCCCCC(NC(=O)COCCOCCNC(=O)COCCOCCNC(=O)CCC(NC(=O)CCCCCCCCCCCCCCCCC(=O)O)C(=O)O)C(=O)O)C1=O)NC(=O)CNC(=O)[C@H](CCCCN)NC(=O)CCCC(=O)OCC(=O)[C@]1(O)Cc2c(O)c3c(c(O)c2[C@@H](O[C@H]2C[C@H](N)[C@H](O)[C@H](C)O2)C1)C(=O)c1c(OC)cccc1C3=O)C(=O)N[C@@H](CC(N)=O)C(=O)N[C@@H](CC(=O)O)C(=O)N[C@@H](CCCNC(=N)N)C(=O)N[C@@H](CCC(N)=O)C(=O)N[C@H](C(=O)N1CCC[C@H]1C(=O)NCC(=O)N[C@@H](Cc1ccc(O)cc1)C(=O)N[C@@H](CO)C(=O)N[C@H](C(=O)N[C@@H](Cc1ccc(O)cc1)C(=O)N[C@@H](Cc1c[nH]c2ccccc12)C(=O)NCC(=O)N[C@@H](CC(=O)O)C(=O)N[C@@H](Cc1ccccc1)C(N)=O)[C@@H](C)O)[C@@H](C)CC (some centres not stated) ({Glutaryl(5-(14-O-Dox))}-KGC(X5)GSDINDRQIPGYSTYWGDF-NH2)	10.1 µM	16.9 µM	1.27 µM	2.83 µM	0.0665 µM	–	–	–
Nc1ccn([C@@H]2O[C@H](CO)[C@@H](O)C2(F)F)c(=O)n1 [GEMCITABINE]	3.23 µM	4.79 µM	3.67 µM	1.78 µM	–	–	–	–
H-GYSTYWGDF-NH2	–	–	–	–	0.147 µM	–	–	–
H-INSGPGYSTYYGDF-NH2	–	–	–	–	0.00121 µM	Not active; Abnormal Binding Affinity Curves Observed	inactive	Active
H-INSGPSDINDRQIPGYSTYWGDF-NH2	–	–	–	–	0.261 µM	–	–	–
H-INSGPSDINDYPI-NH2	–	–	–	–	0.0405 µM	–	–	–
H-INSGPSDINDYPIPGYSTYYGDF-NH2	–	–	–	–	0.713 µM	–	–	–
H-SDINDRQI-NH2	–	–	–	–	0.0265 µM	–	–	–
H-SDINDYPIPGYSTYYGDF-NH2	–	–	–	–	0.00298 µM	Not active; Abnormal Binding Affinity Curves Observed	inactive	Active
